# Results published in US20240208896A1, “PRODRUGS OF KV7 CHANNEL OPENERS” (Xyzagen, Inc., priority 2021, published 2024).
# Like-named read-outs stand apart in the source and are kept apart here.
# What was measured:
# [1] = Pharmacokinetics of ezogabine prodrugs in mouse (SC, PO); conditions: male mice, PO 20 mg/kg, analyte Cmpd 1
# Experimental: (§1) Blood was diluted by 10% with these stabilizers.
# (§2) Extraction of the molecules was conducted by taking a 50 uL aliquot of plasma and adding 200 uL of acetonitrile containing 200 ng/mL tolbutamide as the internal standard. Samples were precipitated in a 96 well plate, centrifuges and an aliquot transferred to a new plate, dried down under heat and nitrogen and then reconstituted in the initial mobile phase conditions of the LC-MS/MS method. […] A standard curve was prepared from 5000 ng/mL to 1 ng/mL for each analyte. Concentration data from the bioanalytical run was analyzed by Phoenix Winnonlin version 8 for noncompartmental sparse sampling PK analysis, plotting of concentration time curves and tabulation of PK parameters.
# Animals were asphyxiated by carbon dioxide gas, blood was collected by cardiac stick and they were euthanized by cervical dislocation.
# [2] = Pharmacokinetics of ezogabine prodrugs in rat (IV, IM, PO); conditions: male SD rat, PO 20 mg/kg, analyte Cmpd 1
# Experimental: as §1
# as §2, with “noncompartmental” for “noncompartmental sparse sampling”
# 150 uL of blood were collected at predesignated time points. At completion of the study animals were asphyxiated by carbon dioxide gas and exsanguinated for euthanasia.
# [3] = target: Human Kv7.2/7.3 (Homo sapiens, UniProt O43525+O43526); experiment: In vitro screen of Kv7.2/7.3 voltage gated potassium channels (FluxOR, FLIPR); assay type: cell-based
# Sequence of Human Kv7.2/7.3 (O43526 whole entry): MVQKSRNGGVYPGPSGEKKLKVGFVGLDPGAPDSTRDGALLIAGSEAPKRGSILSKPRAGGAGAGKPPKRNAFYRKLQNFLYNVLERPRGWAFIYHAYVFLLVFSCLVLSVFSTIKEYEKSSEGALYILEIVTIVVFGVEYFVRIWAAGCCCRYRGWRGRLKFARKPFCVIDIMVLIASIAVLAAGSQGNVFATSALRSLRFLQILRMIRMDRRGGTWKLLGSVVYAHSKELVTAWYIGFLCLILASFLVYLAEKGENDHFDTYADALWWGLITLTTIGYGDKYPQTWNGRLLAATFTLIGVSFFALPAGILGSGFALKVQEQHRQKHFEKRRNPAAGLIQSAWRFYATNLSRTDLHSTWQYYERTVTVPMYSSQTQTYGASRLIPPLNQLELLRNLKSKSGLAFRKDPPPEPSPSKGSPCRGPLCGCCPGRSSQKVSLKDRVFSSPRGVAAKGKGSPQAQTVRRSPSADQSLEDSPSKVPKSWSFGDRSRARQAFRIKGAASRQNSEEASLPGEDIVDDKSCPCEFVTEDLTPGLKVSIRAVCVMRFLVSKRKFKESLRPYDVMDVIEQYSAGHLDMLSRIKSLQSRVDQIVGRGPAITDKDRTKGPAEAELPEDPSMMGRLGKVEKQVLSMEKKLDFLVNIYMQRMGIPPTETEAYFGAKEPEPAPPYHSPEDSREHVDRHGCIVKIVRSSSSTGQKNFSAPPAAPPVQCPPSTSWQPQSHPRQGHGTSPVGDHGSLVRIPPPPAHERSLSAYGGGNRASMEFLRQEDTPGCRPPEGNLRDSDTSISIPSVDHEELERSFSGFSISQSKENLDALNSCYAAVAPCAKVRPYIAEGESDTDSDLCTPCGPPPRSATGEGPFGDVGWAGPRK
# Sequence of Human Kv7.2/7.3 (O43525 whole entry): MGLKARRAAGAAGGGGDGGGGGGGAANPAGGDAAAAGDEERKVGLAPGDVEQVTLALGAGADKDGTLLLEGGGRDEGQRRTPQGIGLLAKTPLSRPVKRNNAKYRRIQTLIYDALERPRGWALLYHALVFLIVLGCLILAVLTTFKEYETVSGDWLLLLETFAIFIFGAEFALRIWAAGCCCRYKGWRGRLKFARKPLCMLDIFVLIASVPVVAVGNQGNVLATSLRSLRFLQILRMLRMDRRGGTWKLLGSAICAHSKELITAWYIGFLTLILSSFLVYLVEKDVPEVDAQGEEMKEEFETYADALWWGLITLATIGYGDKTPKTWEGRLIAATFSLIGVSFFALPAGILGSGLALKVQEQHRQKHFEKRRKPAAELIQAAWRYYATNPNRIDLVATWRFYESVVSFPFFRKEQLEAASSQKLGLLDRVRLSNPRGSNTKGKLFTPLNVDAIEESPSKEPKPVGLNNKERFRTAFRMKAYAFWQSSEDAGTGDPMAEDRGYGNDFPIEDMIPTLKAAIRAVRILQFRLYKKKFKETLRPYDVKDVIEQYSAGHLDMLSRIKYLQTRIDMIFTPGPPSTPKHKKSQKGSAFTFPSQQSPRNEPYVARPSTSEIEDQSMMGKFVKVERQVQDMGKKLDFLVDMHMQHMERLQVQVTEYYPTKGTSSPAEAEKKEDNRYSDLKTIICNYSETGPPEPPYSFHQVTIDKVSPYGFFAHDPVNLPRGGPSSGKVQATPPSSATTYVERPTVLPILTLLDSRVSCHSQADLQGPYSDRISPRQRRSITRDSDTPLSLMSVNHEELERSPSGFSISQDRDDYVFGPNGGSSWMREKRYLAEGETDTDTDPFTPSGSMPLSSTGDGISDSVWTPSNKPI
# Experimental: Human Kv7.2/7.3 cells are harvested, counted and seeded in black, clear-bottomed 96 well plates at a density of 50,000 cells per well in 100 μl volume and incubated overnight. The following day, media was removed and 40 μl of loading buffer (4.895 mL HBSS:HEPES, 50 μL probenecid, 50 μL power load, 5 μl FluxOR reagent) was added and incubated at room temperature for 30 minutes. After incubation loading buffer was removed and 40 μl of assay buffer added (4.45 ml HBSS:HEPES, 500 μl FluxOR assay buffer and 50 μL probenecid) and incubated for 10 minutes.
# [4] = assay type: physicochemical; conditions: for % Conversion to dimer / Concentration of dimer: 8 mg/mL in SGF, 38° C.
# Description: The structure of the dimer is presented.
# [5] = Acid and organic solution stability, HPLC-UV 250 nm; conditions: 5 mg/mL; for Colour of stability solution: room temperature; for Ezogabine Area (formed from the prodrug): 440 h
# Experimental: An HPLC-UV Vis method was developed using 0.1% Formic acid in water as mobile phase A and 0.1% Formic acid in acetonitrile as mobile Phase B. A gradient method was developed ramping from 10% A to 90% B over 8 minutes and then returning to 10% A at 8.5 minutes on a 4.6×50 mm Zorbax C-18 column. Injections of 10 uL of stability solutions were injected for analyte detection.
# […] Aliquots were collected at serial time points and then diluted to a nominal concentration of 100 ug/mL for injection to the HPLC and 250 nm monitored by the diode array detector. Data at approximately 10 days is presented.
# Aliquots were collected at serial time points and then diluted to a nominal concentration of 100 ug/mL for injection to the HPLC and 250 nm monitored by the diode array detector.
# (§3) It was also evaluated at 2 N HCl at 37° C. Aliquots were collected at serial time points and then diluted to a nominal concentration of 100 ug/mL for injection to the HPLC and 250 nm monitored by the diode array detector.
# as §3, §3, §3
# [6] = known value, cited from earlier work
# [7] = in solvent, exposed to light; known; cited from earlier work
# [8] = patients receiving ezogabine (POTIGA); Potiga label; cited from earlier work
# [9] = Rat PK at equimolar dose to Ezogabine (20 mg/kg) in 0.5% methylcellulose; conditions: male cannulated rats; equimolar to Ezogabine 20 mg/kg; 0.5% methylcellulose; analyte the dosed prodrug
# Experimental: (§4) Blood samples were collected at the same time points over 24 hours to generate a concentration time profile. Two male rats were dosed per group. Plasma samples were analyzed by LC/MS/MS and the resulting concentration time profiles and PK parameters are provided.
# as §4, §4
# [10] = test system: MES induced seizures; experiment: MES assay in CF-1 mice, Compound 28 IP dose response; assay type: in vivo, CF-1 mouse; conditions: for Animals protected from MES induced seizures: 30 minutes after administration
compound,measurement,setting,value
"CCOC(=O)Nc1ccc(NCc2ccc(F)cc2)cc1N [Compound 1, Ezogabine]",Cmax/D,[1],148 ng/mL/mg/kg
same,AUClast/D,[1]; 6 h,190 ng·h/mL/mg/kg
same,Cmax/D,[2],44.8 ng/mL/mg/kg
same,AUClast/D,[2]; 24 h,280 ng·h/mL/mg/kg
same,EC50,[3],1600 nM
same,% Conversion to dimer,[4]; Time 0,0%
same,Concentration of dimer,[4]; Time 0,0.00 ng/mL
same,% Conversion to dimer,[4]; Time 1 h,0.250%
same,Concentration of dimer,[4]; Time 1 h,19.5 ng/mL
same,% Conversion to dimer,[4]; Time 4 h,7.95%
same,Concentration of dimer,[4]; Time 4 h,623 ng/mL
same,% Conversion to dimer,[4]; Time 8 h,25.2%
same,Concentration of dimer,[4]; Time 8 h,1980 ng/mL
same,Stability at low pH,[4]; low pH (1 N HCl) and simulated gastric fluid,degrades and forms a chromophore dimer
same,% Remaining,"[5]; 0.1N HCl, room temp., normal light, 267 h",50.7%
same,% Remaining,"[5]; 1N HCl, room temp., normal light, 267 h",68.2%
same,% Remaining,"[5]; Acetonitrile, room temp., normal light, 219 h",44.9%
same,% Remaining,"[5]; Methanol, room temp., normal light, 267 h",41.3%
same,Colour of stability solution,[5]; acid solutions,turning light purple (indicating degradation) by Day 2
same,Colour of stability solution,[5]; organic solvents,did not begin turning purple until Day 7
same,Solubility,[6]; 0.1N NaCl,40 µg/mL
same,Solubility,[6]; 0.1N NaOH,40 µg/mL
same,Solubility,[6]; Ethanol,20000 µg/mL
same,Solubility,[6]; Methanol,54000 µg/mL
same,Solubility,[6]; Water,50 µg/mL
same,Solubility,"[6]; listed as 0.1 Na2HPO4, determined in 0.1N K2HPO4",180 µg/mL
same,Time to degradation with light,[7],3 to 7 days
same,Adverse reaction: abnormal coordination,[8],7%
same,Adverse reaction: aphasia,[8],4%
same,Adverse reaction: asthenia,[8],5%
same,Adverse reaction: balance disorder,[8],4%
same,Adverse reaction: blurred vision,[8],5%
same,Adverse reaction: confusional state,[8],9%
same,Adverse reaction: diplopia,[8],7%
same,Adverse reaction: disturbance in attention,[8],6%
same,Adverse reaction: dizziness,[8],23%
same,Adverse reaction: dysarthria,[8],4%
same,Adverse reaction: fatigue,[8],15%
same,Adverse reaction: gait disturbance,[8],4%
same,Adverse reaction: memory impairment,[8],6%
same,Adverse reaction: somnolence,[8],22%
same,Adverse reaction: tremor,[8],8%
same,Adverse reaction: vertigo,[8],8%
CCOC(=O)Nc1ccc(NCc2ccc(F)cc2)cc1NC(=O)C[C@@H](CN)CC(C)C [Compound 28],AUClast/D,[9],83.0 ng·h/mL/mg/kg
same,Cmax/D,[9],9.31 ng/mL/mg/kg
same,Animals protected from MES induced seizures,[10]; IP 12 mg/kg,1 of 9
same,Animals protected from MES induced seizures,[10]; IP 24 mg/kg,3 of 9
same,Protection against MES induced seizures,"[10]; IP 1.5, 3, 6, 12 and 24 mg/kg",None of the doses showed complete protection
same,Ezogabine Area (formed from the prodrug),"[5]; 0.1N HCl, room temp., normal light",0 mAU
same,Ezogabine Area (formed from the prodrug),"[5]; 1N HCl, room temp., normal light",568 mAU
same,Ezogabine Area (formed from the prodrug),[5]; 2N HCl 37C,3593 mAU
same,Ezogabine Area (formed from the prodrug),"[5]; 2N HCl, room temp., normal light",1462 mAU
same,Ezogabine Area (formed from the prodrug),"[5]; Acetonitrile, room temp., normal light",248 mAU
same,Ezogabine Area (formed from the prodrug),"[5]; Methanol, room temp., normal light",0 mAU
same,Degradation / conversion to ezogabine in solution,"[5]; acidic solutions and organic solvents, up to 3 weeks",exhibits degradation to ezogabine with increasing strength of the acidic solution
